22 molecules from paper PMC5986712, “Aminobenzothiazole derivatives stabilize the thermolabile p53 cancer mutant Y220C and show anticancer activity in p53-Y220C cell lines” (European Journal of Medicinal Chemistry, 2018) can be followed below.

Bounds are passed on as bounds.

One series has as its system NUGC3 cells (p53-Y220C). In words: Cell viability assay (CellTiter-Fluor / CellTiter-Glo 2.0), NUGC3. The format is cell-based, human. As to conditions: Homo sapiens, NUGC-3; 72 h, Y220C cell line. Here is the method: (§1) We also envisaged that masking the carboxylate of MB710 as a simple ethylamide MB725 might influence cell permeability and uptake of the scaffold.
(§2) All cell lines were cultured as previously described. Cell viability was measured in quadruplicate (technical replicates) using the CellTiter-Fluor or CellTiter-Glo 2.0 cell viability assay kits (Promega, USA) as previously described.
Background: ATP-based viability assays read luminescence as a measure of living cells.

The test system of the next series is BXPC-3 cells (p53-Y220C). The series can be described thus: Cell viability assay, BXPC3. Conditions: Homo sapiens, BXPC-3, 72 h, read-out: IC50 BXPC3.
Series [1] relates to WI38 cells (non-cancerous fibroblast, p53 WT). In words: Cell viability assay, WI38. As to conditions: Homo sapiens, WI-38, 72 h, read-out: IC50 WI38.
Series [2] relates to NUGC4 cells (wild-type p53). In words: Cell viability assay, NUGC4. It is filed as cell-based. As to conditions: Homo sapiens, NUGC-4; 72 h, p53 WT. The method, then:
as §1, §2

Series [3] can be described thus: Solubility (qualitative observation). The format is physicochemical.
In series [4] the target is T1, stabilized p53-Y220C DBD (residues 94–312) (Homo sapiens, UniProt P04637, M133L/N239Y/N268D/V203A/Y220C).
T1 construct: Stabilized p53-Y220C DBD (residues 94–312) was expressed and purified; 6xHis / lipoyl domain / TEV protease cleavage site (N, cleaved yes); made in house; host or cells: E. coli C41
The series can be described thus: Differential scanning fluorimetry (DSF), thermal stabilization of Y220C. It is filed as binding. As to conditions: 8 μM protein, 10 × SYPRO Orange, 250 μM ligand. The method, then:
DSF was performed as described. […] All samples were measured in triplicate.

The test system of the next series is p53 cancer mutant Y220C. The series can be described thus: Binding affinity to the Y220C pocket, values taken from earlier papers (ITC/NMR). Conditions: Kd ratio.
The target of series [5] is T1, stabilized p53-Y220C DBD (residues 94–312). The series can be described thus: Isothermal titration calorimetry (ITC). Conditions: for Kd: ITC. It is filed as binding. Here is the method: Isothermal Titration Calorimetry (ITC). ITC experiments were conducted as described. The cell unit contained 50 μM protein in a 25 mM KPi (pH 7.2), 150 mM NaCl, 1 mM TCEP, and 5% (v/v) DMSO assay buffer. The syringe contained 2–5 mM compound in the same buffer.
Background: In ITC the heat of successive injections is recorded.

The subject of series [6] is HUH-7 and HUH-7 p53-Y220C KO cells. In words: Cell viability, HUH-7 versus isogenic HUH-7 p53-Y220C KO. It is filed as cell-based, human. As to conditions: 72 h, at higher compound concentration than MB725. From the text: To confirm that MB725 mediated anticancer effects are dependent on p53-Y220C, we additionally tested the compound in HUH-7 and an in-house CRISPR generated isogenic p53-Y220C knock-out (KO) HUH-7 cell line (Fig. 8). This new cell line contains a frameshift mutation at codon 124 on one allele and deletion of amino acids 125–223 on the other allele, leading to functional inactivation of the p53 DNA-binding domain (aa 92–292). MB725 decreased cell viability by ca. 30–40% more potently in HUH-7 than in the isogenic HUH-7 p53-Y220C KO (Fig. 8, upper panel).
Fig. 8 Assessment of p53-Y220C dependent effect of MB725. Treatment of HUH-7 (p53-Y220C) and HUH-7 p53-Y220C KO cell lines with MB725 for 72 h underscores the enhanced cytotoxicity of MB725 in the presence of p53-Y220C (left panel). […] Cell viability was measured in quadruplicate and normalized against the values of blank (viability = 1) and no cell (viability = 0) controls (left panel). […] Relative mRNA fold-change was measured in triplicate and normalized against untreated sample according to the ΔΔCt method. […]
WI-38 and BXPC-3 (p53-Y220C) cell lines were purchased from ATCC and HUH-7 (p53-Y220C+/+), HUH-6 (wild-type p53+/+). […] Cell viability was measured in quadruplicate (technical replicates) using the CellTiter-Fluor or CellTiter-Glo 2.0 cell viability assay kits (Promega, USA) as previously described. […]

Series [7] has as its system NUGC4, HUH-6, NUGC3, HUH-7, SW1088, BXPC-3, WI38 cells. The series can be described thus: Cell viability across all cell lines tested. Conditions: 72 h treatment; 60 and MB710: at concentrations up to 60 μM. The format is cell-based, human. The method, then:
as §1, §2

The subject of the next series is SW1088 cells (p53-R273C). In words: Cell viability assay, SW1088. Conditions: Homo sapiens, SW1088, 72 h, read-out: IC50 SW1088.

As for `Cn1cc(-c2ccccc2)c(-n2cccc2)n1` [Compound 2], the half-maximal inhibitory concentration (IC50) (usually the point on the concentration scale where inhibition reaches its midpoint) in the series with NUGC3 cells (p53-Y220C) was 43 µM; in the series with BXPC-3 cells (p53-Y220C), 57 µM; in series [1], approximately 120 µM; in [2], more than 120 µM.
Turning to `CCN(CC)C1CCN(Cc2cc(C#CCNc3ccccc3)cc(I)c2O)CC1` [Compound 3], the IC50 worked out at 6 µM in the series on NUGC3 cells (p53-Y220C), 11 µM in the series on BXPC-3 cells (p53-Y220C), 7 µM in [1] and 9 µM in [2].
Turning to `O=C(O)c1cc(I)cc(I)c1O` [Compound 4, 2-hydroxy-3,5-diiodobenzoic acid, reference compound], in [3], the “solubility (in words)” value is given as “water soluble”.
As for `COC(=O)c1cc(I)c(-n2cccc2)c(I)c1O` [Compound 8, Methyl 2-hydroxy-3,5-diiodo-4-(1H-pyrrol-1-yl)benzoate], the ΔTm (usually the change in melting temperature against a reference sample) at 250 µM in series [4] is -0.1 °C.
For the molecule `O=C(O)c1cc(I)c(-n2cccc2)c(I)c1O` [Compound 9, 2-hydroxy-3,5-diiodo-4-(1H-pyrrol-1-yl)benzoic acid], the “fold more potent than parent fragment 4” value in the series on p53 cancer mutant Y220C is listed as 40 fold.
For the molecule `CN(C)CCNC(=O)c1cc(I)c(-n2cccc2)c(I)c1O` [Compound 10, N-(2-(dimethylamino)ethyl)-2-hydroxy-3,5-diiodo-4-(1H-pyrrol-1-yl)benzamide], the ΔTm at 250 µM in series [4] was found to be 1.3 °C. For the same molecule, the “solubility (in words)” value in [3] is recorded as “substantially less soluble than carboxylic acid 9”.
In the case of `CN1CCN(C(=O)c2cc(I)c(-n3cccc3)c(I)c2O)CC1` [Compound 11, (2-hydroxy-3,5-diiodo-4-(1H-pyrrol-1-yl)phenyl)(4-methylpiperazin-1-yl)methanone], in [4], the thermal shift (ΔTm) at 250 µM worked out at 1.2 °C. For the same molecule, in [5], the dissociation constant (Kd) (in general, the free concentration of one partner at which half of the binding sites on the other are occupied at equilibrium, for simple one-to-one binding) amounted to 30 µM.
As for `CNC(=O)c1cc(I)c(-n2cccc2)c(I)c1O` [Compound 12, 2-hydroxy-3,5-diiodo-N-methyl-4-(1H-pyrrol-1-yl)benzamide], the ΔTm at 250 µM in series [4] turned out to be 0.9 °C. This molecule also registered an equilibrium dissociation constant (Kd) in series [5] of 70 µM. Also, the “solubility (in words)” value in series [3] is “substantially less soluble than carboxylic acid 9”.
On to `O=C(NO)c1cc(I)c(-n2cccc2)c(I)c1O` [Compound 15, N,2-dihydroxy-3,5-diiodo-4-(1H-pyrrol-1-yl)benzamide], for which, in [4], the thermal shift (ΔTm) at 250 µM amounted to 0.8 °C. The molecule further returned a Kd in series [5] of 139 µM.
`CN(C)Cc1cc(I)c(-n2cccc2)c(I)c1O` [Compound 17, 6-((dimethylamino)methyl)-2,4-diiodo-3-(1H-pyrrol-1-yl)phenol]: the ΔTm at 250 µM in series [4] amounted to 0.9 °C. In addition, the Kd in [5] amounted to 60 µM.
`O=c1[nH][nH]c2c(I)c(-n3cccc3)c(I)cc12` [Compound 21, 5,7-diiodo-6-(1H-pyrrol-1-yl)-1,2-dihydro-3H-indazol-3-one]: the ΔTm at 250 µM in series [4] was found to be 1.5 °C. In series [5], this molecule had a Kd of 50 µM.
As to `O=C(O)c1cc(-c2ccccc2)c(-n2cccc2)c(I)c1O` [Compound 33, 4-hydroxy-5-iodo-6-(1H-pyrrol-1-yl)-[1,1'-biphenyl]-3-carboxylic acid], the ΔTm at 250 µM in [4] amounted to 1 °C. In [5], this molecule yielded an equilibrium dissociation constant (Kd) of 306 µM.
The corresponding values for `O=C(O)c1cc(-c2ccc(F)cc2)c(-n2cccc2)c(I)c1O` [Compound 34, 4'-fluoro-4-hydroxy-5-iodo-6-(1H-pyrrol-1-yl)-[1,1'-biphenyl]-3-carboxylic acid] are 0.8 °C and 113 µM.
On to `COc1ccc(-c2cc(C(=O)O)c(O)c(I)c2-n2cccc2)cc1` [Compound 35, 4-hydroxy-5-iodo-4'-methoxy-6-(1H-pyrrol-1-yl)-[1,1'-biphenyl]-3-carboxylic acid], for which the thermal shift (ΔTm) at 250 µM in series [4] turned out to be 1 °C. In series [5], this molecule displayed a Kd of 122 µM.
As for `CCOc1cc(C(=O)O)c(O)c(I)c1-n1cccc1` [Compound 49, 5-ethoxy-2-hydroxy-3-iodo-4-(1H-pyrrol-1-yl)benzoic acid], the ΔTm at 250 µM in series [4] was 1.3 °C. Besides, the Kd in [5] worked out at 63 µM. Further, the “times less potent than the parent iodine” value in [5] (Kd ratio versus parent iodine (21 μM)) amounted to 3.
Regarding `C=CCOc1cc(C(=O)O)c(O)c(I)c1-n1cccc1` [Compound 51, 5-(allyloxy)-2-hydroxy-3-iodo-4-(1H-pyrrol-1-yl)benzoic acid], the ΔTm at 250 µM in [4] stood at 1.8 °C. Also, in series [5], binding was characterised by a dissociation constant (Kd) of 33 µM.
On to `O=C(O)c1cc(OCCC(F)(F)F)c(-n2cccc2)c(I)c1O` [Compound 53, 2-hydroxy-3-iodo-4-(1H-pyrrol-1-yl)-5-(3,3,3-trifluoropropoxy)benzoic acid], for which the ΔTm at 250 µM in series [4] is 1.4 °C. For the same molecule, binding in series [5] was characterised by a dissociation constant (Kd) of 108 µM.
The like results for `O=C(O)c1cc(OCCO)c(-n2cccc2)c(I)c1O` [Compound 54, 2-hydroxy-5-(2-hydroxyethoxy)-3-iodo-4-(1H-pyrrol-1-yl)benzoic acid] were, in that order, 0.6 °C and 726 µM.
The corresponding values for `O=C(O)c1cc(OCCc2ccccc2)c(-n2cccc2)c(I)c1O` [Compound 55, 2-hydroxy-3-iodo-5-phenethoxy-4-(1H-pyrrol-1-yl)benzoic acid] are 1 °C and 116 µM.
Regarding `CC(C)COc1cc(C(=O)O)c(O)c(I)c1-n1cccc1` [Compound 56, 2-hydroxy-3-iodo-5-isobutoxy-4-(1H-pyrrol-1-yl)benzoic acid], in series [4], the ΔTm at 250 µM was determined as 1.4 °C. In addition, in series [5], binding was put at a Kd of 30 µM.
`CCN(CC)c1nc2c(C(=O)O)c(O)c(I)c(-n3cccc3)c2s1` [Compound 70, 2-(diethylamino)-5-hydroxy-6-iodo-7-(1H-pyrrol-1-yl)benzo[d]thiazole-4-carboxylic acid]: the half-inhibitory concentration (IC50) was 90 µM in the series on NUGC3 cells (p53-Y220C), more than 120 µM in series [1], approximately 120 µM in [2] and more than 120 µM in the series on SW1088 cells (p53-R273C). Also, the “viability reduction HUH-7 versus HUH-7 p53-Y220C KO (in words)” value in series [6] is recorded as “stronger viability reduction in HUH-7 cells than in HUH-7 p53-Y220C KO cells”. Moreover, the ΔTm at 250 µM in series [4] stood at 2 °C. In addition, in series [7], the “toxicity and selectivity across cell lines (in words)” value is listed as “relatively low toxicity against all cell lines tested”. The molecule further came in with a Kd in series [5] of 4 µM. In addition, the “fold increase in affinity compared to starting fragment 4” value in series [5] (Kd ratio) was determined as 200 fold.
`CCN(CC)c1nc2c(C(=O)OC)c(O)c(I)c(-n3cccc3)c2s1` [Compound 71, Methyl 2-(diethylamino)-5-hydroxy-6-iodo-7-(1H-pyrrol-1-yl)benzo[d]thiazole-4-carboxylate]: the “solubility (in words)” value in series [3] is “reduced solubility”.
